Data as given in patent US10294202B2, “Pyrrolidinones as herbicides” (FMC Corporation, priority 2013, dated 2019).

Experiments:
barnyardgrass [1] = assay: Test A pre-/postemergence herbicide test; format: in vivo, Echinochloa crus-galli
Outline: (§1)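 Visual injury ratings, 0 = no effect, 100 = complete control, taken ~10 days after treatment against untreated greenhouse controls. Preemergence: directed soil spray onto seeded loam/sand pots. Postemergence: spray onto plants at one- to two-leaf stage, 2–10 cm tall.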

giant foxtail = assay: Test A pre-/postemergence herbicide test; format: in vivo, Setaria faberii
Outline: as §1

corn [2] = assay: Test A pre-/postemergence herbicide test; format: in vivo, Zea mays
Outline: as §1

ducksalad = assay: Test B flooded paddy test; format: in vivo, Heteranthera limosa; conditions: Flood, scale of 0 to 100 where 0 is no effect and 100 is complete control
Outline: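 Scored visually 0–100 (0 no effect, 100 complete control) versus controls after 13 to 15 greenhouse days. Treatment: compound added to paddy water kept 3 cm above soil, on 2-leaf-stage plants.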

ryegrass, Italian = assay: Test C pre-/postemergence herbicide test; format: in vivo, Lolium multiflorum
Outline: (§2)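 Pre- and postemergence greenhouse screen. Preemergence treatment went onto freshly planted seeds in loam–sand soil; postemergence treatment went onto plants 2 to 18 cm tall at the 1- to 4-leaf stage in sphagnum peat/vermiculite medium. Scoring at 13 to 15 days used a 0–100 control scale.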

corn [3] = assay: Test C pre-/postemergence herbicide test; format: in vivo, Zea mays
Outline: as §2

lambsquarters = assay: Test C pre-/postemergence herbicide test; format: in vivo, Chenopodium album
Outline: as §2

nutsedge, yellow = assay: Test C pre-/postemergence herbicide test; format: in vivo, Cyperus esculentus
Outline: as §2

soybean = assay: Test C pre-/postemergence herbicide test; format: in vivo, Glycine max
Outline: as §2

barnyardgrass [4] = assay: Test C pre-/postemergence herbicide test; format: in vivo, Echinochloa crus-galli; conditions: for Barnyardgrass plant response rating: scale 0 to 100, 0 is no effect and 100 is complete control
Outline: as §2

waterhemp = assay: Test C pre-/postemergence herbicide test; format: in vivo, Amaranthus rudis
Outline: as §2

[5] = 125 g ai/ha, visual rating, 0 to 100 scale, 0 no effect, 100 complete control, approximately 10 days, preemergence
[6] = Postemergence, 125 g ai/ha, 0 to 100 scale, 0 no effect, 100 complete control
[7] = Postemergence, 500 g ai/ha, 0 to 100 scale (0 no effect, 100 complete control)
[8] = Postemergence, 31 g ai/ha, scale 0 to 100 (0 no effect, 100 complete control)
[9] = Postemergence, 62 g ai/ha, scale 0 (no effect) to 100 (complete control)
[10] = Postemergence, 125 g ai/ha, scale 0 to 100 (0 no effect, 100 complete control)
[11] = Postemergence, 250 g ai/ha, scale 0 to 100 (0 no effect, 100 complete control)
[12] = Preemergence, 31 g ai/ha, scale 0 to 100, 0 is no effect and 100 is complete control
[13] = Preemergence, 62 g ai/ha, scale 0 to 100
[14] = Preemergence, 125 g ai/ha, scale 0 to 100 (0 no effect, 100 complete control)
[15] = Postemergence, 125 g ai/ha, 0 to 100 scale, 0 is no effect, 100 is complete control
[16] = Preemergence, 125 g ai/ha, 0 to 100 scale where 0 is no effect and 100 is complete control
[17] = preemergence, 500 g ai/ha, 0 to 100 scale, 0 is no effect and 100 is complete control
[18] = Preemergence, 62 g ai/ha, scale 0 to 100 (0 no effect, 100 complete control)

O=C1NCC(c2ccc(F)cc2)C1C(=O)Nc1cccc(F)c1F (racemic) [Compound 119]
95: Plant response rating, Barnyardgrass (barnyardgrass [4]; [14])
50: Plant response rating, Lambsquarters (lambsquarters; [9])
70: Plant response rating, Corn (corn [2]; [7]) | Plant response rating, Lambsquarters (lambsquarters; [11]) | Plant response rating, Waterhemp (waterhemp; [14])
0: Plant response rating, Ryegrass, Italian (ryegrass, Italian; [8]) | Plant response rating, Ryegrass, Italian (ryegrass, Italian; [9]) | Plant response rating, Ryegrass, Italian (ryegrass, Italian; [10]) | Ryegrass, Italian plant response rating (ryegrass, Italian; [12]) | Plant response rating, Corn (corn [3]; [8]) | Plant response rating, Corn (corn [3]; [9]) | Plant response rating, Corn (corn [3]; [10]) | Corn plant response rating (corn [3]; [12]) | Plant response rating, Corn (corn [3]; [13]) | Plant response rating, Nutsedge, Yellow (nutsedge, yellow; [8]) | Plant response rating, Nutsedge, Yellow (nutsedge, yellow; [9]) | Plant response rating, Nutsedge, Yellow (nutsedge, yellow; [10]) | Plant response rating, Nutsedge, Yellow (nutsedge, yellow; [11]) | Nutsedge, Yellow plant response rating (nutsedge, yellow; [12]) | Plant response rating, Nutsedge, Yellow (nutsedge, yellow; [13]) | Plant response rating, Nutsedge, Yellow (nutsedge, yellow; [14]) | Plant response rating (scale of 0 to 100), Nutsedge, Yellow (nutsedge, yellow; Preemergence, 250 g ai/ha) | Plant response rating, Soybean (soybean; [10]) | Soybean plant response rating (soybean; [12]) | Plant response rating, Soybean (soybean; [14]) | Plant response rating (scale of 0 to 100), Soybean (soybean; Preemergence, 250 g ai/ha) | Plant response rating, Waterhemp (waterhemp; [8]) | Plant response rating, Waterhemp (waterhemp; [9]) | Plant response rating, Waterhemp (waterhemp; [10])
60: Plant response rating, Lambsquarters (lambsquarters; [13])
20: Plant response rating, Soybean (soybean; [13]) | Waterhemp plant response rating (waterhemp; [12])
25: Lambsquarters plant response rating (lambsquarters; [12]) | Plant response rating, Barnyardgrass (barnyardgrass [4]; [8])
98: Plant response rating (scale of 0 to 100; 0 is no effect, 100 is complete control), Barnyardgrass (barnyardgrass [4]; Preemergence, 250 g ai/ha)
5: Plant response rating, Ryegrass, Italian (ryegrass, Italian; [11]) | Plant response rating, Corn (corn [3]; [11]) | Plant response rating, Lambsquarters (lambsquarters; [8]) | Plant response rating, Soybean (soybean; [8]) | Plant response rating, Soybean (soybean; [9]) | Plant response rating, Soybean (soybean; [11])
65: Plant response rating, Barnyardgrass (barnyardgrass [4]; [10]) | Plant response rating, Waterhemp (waterhemp; [13])
40: Plant response rating (scale of 0 to 100), Ryegrass, Italian (ryegrass, Italian; Preemergence, 250 g ai/ha) | Plant response rating, Barnyardgrass (barnyardgrass [4]; [9]) | Plant response rating, Waterhemp (waterhemp; [11])
90: Plant response rating, Barnyardgrass (barnyardgrass [1]; [5]) | Plant response rating, Barnyardgrass (barnyardgrass [1]; [6]) | Plant response rating, Barnyardgrass (barnyardgrass [1]; [7]) | Plant response rating, Barnyardgrass (barnyardgrass [1]; preemergence, 500 g ai/ha, 0 to 100 scale (0 no effect, 100 complete control)) | Plant response rating, Foxtail, Giant (giant foxtail; [5]) | Plant response rating, Foxtail, Giant (giant foxtail; [6]) | Foxtail, Giant plant response rating (0 to 100 scale, 0 is no effect, 100 is complete control) (giant foxtail; Postemergence, 500 g ai/ha) | Plant response rating, Foxtail, Giant (giant foxtail; preemergence, 500 g ai/ha, 0 to 100 scale) | Plant response rating, Barnyardgrass (barnyardgrass [4]; [13])
30: Plant response rating, Corn (corn [2]; [6]) | Plant response rating, Ryegrass, Italian (ryegrass, Italian; [14])
75: Plant response rating, Lambsquarters (lambsquarters; [10])
15: Plant response rating, Ryegrass, Italian (ryegrass, Italian; [13]) | Plant response rating, Corn (corn [3]; [14])
80: Plant response rating, Barnyardgrass (barnyardgrass [4]; [11]) | Barnyardgrass plant response rating (barnyardgrass [4]; Preemergence, 31 g ai/ha) | Plant response rating (scale of 0 to 100), Waterhemp (waterhemp; Preemergence, 250 g ai/ha)
85: Plant response rating, Lambsquarters (lambsquarters; [14]) | Plant response rating (scale of 0 to 100), Lambsquarters (lambsquarters; Preemergence, 250 g ai/ha)
45: Plant response rating (scale of 0 to 100), Corn (corn [3]; Preemergence, 250 g ai/ha)
100: Plant response rating, Ducksalad (ducksalad; 500 g ai/ha)

O=C1NCC(c2ccc(C(F)(F)F)c(F)c2)C1C(=O)Nc1ccccc1F (racemic) [Compound 246]
70: Plant response rating, Barnyardgrass (barnyardgrass [1]; [15]) | Plant response rating, Barnyardgrass (barnyardgrass [1]; [7])
10: Plant response rating, Ryegrass, Italian (ryegrass, Italian; [14]) | Plant response rating (scale of 0 to 100), Ryegrass, Italian (ryegrass, Italian; Preemergence, 250 g ai/ha) | Plant response rating (scale of 0 to 100), Soybean (soybean; Preemergence, 250 g ai/ha)
95: Plant response rating, Ducksalad (ducksalad; 1000 g ai/ha)
98: Waterhemp plant response rating (waterhemp; [18])
30: Plant response rating, Corn (corn [2]; [7])
90: Plant response rating, Barnyardgrass (barnyardgrass [1]; [17]) | Plant response rating, Foxtail, Giant (giant foxtail; [17]) | Plant response rating (scale of 0 to 100), Lambsquarters (lambsquarters; Preemergence, 250 g ai/ha) | Plant response rating (scale of 0 to 100; 0 is no effect, 100 is complete control), Barnyardgrass (barnyardgrass [4]; Preemergence, 250 g ai/ha) | Plant response rating, Waterhemp (waterhemp; [14]) | Plant response rating (scale of 0 to 100), Waterhemp (waterhemp; Preemergence, 250 g ai/ha)
85: Nutsedge, Yellow plant response rating (nutsedge, yellow; [12])
5: Plant response rating, Corn (corn [3]; [14])
40: Plant response rating, Foxtail, Giant (giant foxtail; [15])
20: Plant response rating, Corn (corn [2]; [15]) | Barnyardgrass plant response rating (barnyardgrass [4]; Preemergence, 31 g ai/ha)
80: Plant response rating, Barnyardgrass (barnyardgrass [1]; [16]) | Plant response rating, Foxtail, Giant (giant foxtail; [7]) | Plant response rating, Foxtail, Giant (giant foxtail; [16]) | Plant response rating, Lambsquarters (lambsquarters; [14])
100: Nutsedge, Yellow plant response rating (nutsedge, yellow; [18]) | Plant response rating, Nutsedge, Yellow (nutsedge, yellow; [14]) | Waterhemp plant response rating (waterhemp; [12])
65: Lambsquarters plant response rating (lambsquarters; [12]) | Lambsquarters plant response rating (lambsquarters; [18])
75: Plant response rating, Barnyardgrass (barnyardgrass [4]; [13]) | Plant response rating, Barnyardgrass (barnyardgrass [4]; [14])
0: Plant response rating, Corn (corn [2]; [16]) | Plant response rating, Corn (corn [2]; [17]) | Ryegrass, Italian plant response rating (ryegrass, Italian; [12]) | Ryegrass, Italian plant response rating (ryegrass, Italian; [18]) | Corn plant response rating (corn [3]; [12]) | Corn plant response rating (corn [3]; [18]) | Plant response rating (scale of 0 to 100), Corn (corn [3]; Preemergence, 250 g ai/ha) | Plant response rating (scale of 0 to 100), Nutsedge, Yellow (nutsedge, yellow; Preemergence, 250 g ai/ha) | Soybean plant response rating (soybean; [12]) | Soybean plant response rating (soybean; [18]) | Plant response rating, Soybean (soybean; [14])
